Source: the NIST ThermoML archive (doi:10.1016/j.jct.2009.07.022)
Where “and” joins values, the source holds several entries; their conditions need not be identical. Equal entries are not always repeated. ± gives the expanded uncertainty stated by the source.

Key:
[1] = Crystal, Calculated from knudsen effusion weight loss
[2] = molar enthalpy of transition or fusion; settings: 298.15 K; Crystal; Clausius-Clapeyron Eq with Heat Capacity

c1ccc(-c2cccc(-c3ccccc3)c2-c2ccccc2)cc1 [1,2,3-triphenylbenzene]
vapor or sublimation pressure ([1]; 373.15 K): 0.0001 ± 5e-06 kPa and 9.85e-05 ± 4.9e-06 kPa
vapor or sublimation pressure ([1]; 375.03 K): 0.000124 ± 6e-06 kPa and 0.00012 ± 6e-06 kPa
vapor or sublimation pressure ([1]; 377.27 K): 0.00016 ± 8e-06 kPa and 0.000158 ± 8e-06 kPa
vapor or sublimation pressure ([1]; 379.15 K): 0.0002 ± 1e-05 kPa and 0.000199 ± 1e-05 kPa and 0.000195 ± 1e-05 kPa
vapor or sublimation pressure ([1]; 381.02 K): 0.000244 ± 1.2e-05 kPa and 0.000247 ± 1.2e-05 kPa and 0.000237 ± 1.2e-05 kPa
vapor or sublimation pressure ([1]; 383.27 K): 0.000316 ± 1.6e-05 kPa and 0.000305 ± 1.5e-05 kPa and 0.000301 ± 1.5e-05 kPa
vapor or sublimation pressure ([1]; 385.27 K): 0.000384 ± 1.9e-05 kPa and 0.000369 ± 1.8e-05 kPa and 0.000365 ± 1.8e-05 kPa
vapor or sublimation pressure ([1]; 387.12 K): 0.000458 ± 2.3e-05 kPa and 0.00046 ± 2.3e-05 kPa
vapor or sublimation pressure ([1]; 389.05 K): 0.000548 ± 2.7e-05 kPa and 0.000555 ± 2.8e-05 kPa and 0.000543 ± 2.7e-05 kPa
vapor or sublimation pressure ([1]; 391.28 K): 0.000733 ± 3.7e-05 kPa and 0.00073 ± 3.7e-05 kPa and 0.000715 ± 3.6e-05 kPa
vapor or sublimation pressure ([1]; 393.1 K): 0.000871 ± 4.4e-05 kPa and 0.000865 ± 4.3e-05 kPa and 0.000872 ± 4.4e-05 kPa
vapor or sublimation pressure ([1]; 394.98 K): 0.001033 ± 0.0001 kPa and 0.001062 ± 0.00011 kPa and 0.001027 ± 0.0001 kPa
molar enthalpy of transition or fusion [2]: 32.1 ± 0.526 kcal/mol
